Reference: the NIST ThermoML archive (doi:10.1016/j.jct.2012.09.026)
Numbers after ± are expanded uncertainties.

Experiments:
[1] = Liquid, Vibrating tube method
[2] = xn = mol fraction of the nth substance listed; conditions: Liquid, x2 = 0

CC(C)(C)O [2-methylpropan-2-ol]
mass density [kg/m3], [1]
Conditions | 101.3 kPa | 10000 kPa | 25000 kPa | 50000 kPa | 75000 kPa | 100000 kPa
308.15 K | 770.14 ± 1 | – | – | – | – | –
323.15 K | 753.94 ± 1 | 764.58 ± 1 | 778.73 ± 1.1 | 798.2 ± 1.1 | 813.79 ± 1.2 | 827.34 ± 1.3

O [water]
mass density [kg/m3], [1]
Conditions | 101.3 kPa | 10000 kPa | 25000 kPa | 50000 kPa | 75000 kPa | 100000 kPa
278.15 K | 999.96 ± 1 | 1004.77 ± 1 | 1011.88 ± 1.1 | 1023.2 ± 1.1 | 1033.91 ± 1.2 | 1044.08 ± 1.3
288.15 K | – | 1003.67 ± 1 | 1010.42 ± 1.1 | 1021.21 ± 1.1 | 1031.47 ± 1.2 | 1041.23 ± 1.3
298.15 K | – | 1001.47 ± 1 | 1007.99 ± 1.1 | 1018.44 ± 1.1 | 1028.37 ± 1.2 | 1037.86 ± 1.3
308.15 K | – | 998.36 ± 1 | 1004.75 ± 1.1 | 1014.97 ± 1.1 | 1024.71 ± 1.2 | 1034 ± 1.3
323.15 K | 988.03 ± 1 | 992.31 ± 1 | 998.61 ± 1.1 | 1008.68 ± 1.1 | 1018.27 ± 1.2 | 1027.42 ± 1.3

O [water] + CC(C)(C)O
mass density [kg/m3], [2]
Conditions | 278.15 K | 288.15 K | 298.15 K | 308.15 K | 323.15 K
101.3 kPa, Vibrating tube method | 999.96 ± 1 | – | – | – | 988.03 ± 1
10000 kPa, Constant-volume piezometry | 1004.77 ± 1 | 1003.67 ± 1 | 1001.47 ± 1 | 998.36 ± 1 | 992.31 ± 1
25000 kPa, Constant-volume piezometry | 1011.88 ± 1.1 | 1010.42 ± 1.1 | 1007.99 ± 1.1 | 1004.75 ± 1.1 | 998.61 ± 1.1
50000 kPa, Constant-volume piezometry | 1023.2 ± 1.1 | 1021.21 ± 1.1 | 1018.44 ± 1.1 | 1014.97 ± 1.1 | 1008.68 ± 1.1
75000 kPa, Constant-volume piezometry | 1033.91 ± 1.2 | 1031.47 ± 1.2 | 1028.37 ± 1.2 | 1024.71 ± 1.2 | 1018.27 ± 1.2
100000 kPa, Constant-volume piezometry | 1044.08 ± 1.3 | 1041.23 ± 1.3 | 1037.86 ± 1.3 | 1034 ± 1.3 | 1027.42 ± 1.3
